Some results are limits rather than exact numbers.

One data set deals with Phakopsora pachyrhizi. Kind of data set: Phakopsora pachyrhizi / soybean / leaf disc preventative (Asian soybean rust). In kind it is in vivo. Particulars: foliar, 200 ppm in the applied formulation, soybean leaf disks, inoculated one day after application, assessed 12 to 14 days after application, read-out: disease control compared to untreated control leaf disks. As to the method: Leaf disks or leaf segments of various plant species are cut from plants grown in a greenhouse. The cut leaf disks or segments are placed in multiwell plates (24-well format) onto water agar. The leaf disks are sprayed with a test solution before (preventative) or after (curative) inoculation. Compounds to be tested are prepared as DMSO solutions (max. 10 mg/ml) which are diluted to the appropriate concentration with 0.025% Tween20 just before spraying. The inoculated leaf disks or segments are incubated under defined conditions (temperature, relative humidity, light, etc.) according to the respective test system. A single evaluation of disease level is carried out 3 to 14 days after inoculation, depending on the pathosystem. Percent disease control relative to the untreated check leaf disks or segments is then calculated.
Soybean leaf disks are placed on water agar in multiwell plates (24-well format) and sprayed with the formulated test compound diluted in water. One day after application leaf discs are inoculated by spraying a spore suspension on the lower leaf surface. After an incubation period in a climate cabinet of 24-36 hours in darkness at 20° C. and 75% rh leaf disc are kept at 20° C. with 12 h light/day and 75% rh. The activity of a compound is assessed as percent disease control compared to untreated when an appropriate level of disease damage appears in untreated check leaf disks (12 to 14 days after application).
The following compounds at 200 ppm in the applied formulation give at least 80% disease control in this test when compared to untreated control leaf disks under the same conditions, which show extensive disease development.

Data set [1] concerns Glomerella lagenarium (Colletotrichum lagenarium). Kind of data set: Glomerella lagenarium (Colletotrichum lagenarium) liquid culture / cucumber / preventative (anthracnose). Particulars: Colletotrichum orbiculare; 20 ppm in the applied formulation; liquid culture in PDB, 24° C.; 3 to 4 days after application; read-out: disease control compared to untreated control (inhibition of growth measured photometrically). In kind it is cell-based. As to the method: Mycelia fragments or conidia suspensions of a fungus prepared either freshly from liquid cultures of the fungus or from cryogenic storage, are directly mixed into nutrient broth. DMSO solutions of the test compound (max. 10 mg/ml) are diluted with 0.025% Tween20 by a factor of 50 and 10 μl of this solution is pipetted into a microtiter plate (96-well format). The nutrient broth containing the fungal spores/mycelia fragments is then added to give an end concentration of the tested compound. The test plates are incubated in the dark at 24° C. and 96% relative humidity. The inhibition of fungal growth is determined photometrically after 2 to 7 days, depending on the pathosystem, and percent antifungal activity relative to the untreated check is calculated.
Conidia of the fungus from cryogenic storage are directly mixed into nutrient broth (PDB—potato dextrose broth). After placing a (DMSO) solution of test compound into a microtiter plate (96-well format), the nutrient broth containing the fungal spores is added. The test plates are incubated at 24° C. and the inhibition of growth is measured photometrically 3 to 4 days after application.
The following compounds at 20 ppm in the applied formulation give at least 80% disease control in this test when compared to untreated control under the same conditions, which show extensive disease development.

Regarding `Cc1ccccc1Sc1ccc(-c2noc(C(F)(F)F)n2)cc1` [Compound 1.17, 3-[4-(o-tolylsulfanyl)phenyl]-5-(trifluoromethyl)-1,2,4-oxadiazole], in the data set with Phakopsora pachyrhizi, the pest or weed control at 200 ppm was no less than 80%.
As a reminder, the melting point is the temperature, or range, at which the solid turns liquid. For the compound `O=S(=O)(Cc1ccc(-c2noc(C(F)(F)F)n2)c(F)c1F)c1ccccc1` [Compound 3.23, 3-[4-(benzenesulfonylmethyl)-2,3-difluoro-phenyl]-5-(trifluoromethyl)-1,2,4-oxadiazole], the melting point lay within 187 to 191 °C. Besides, in the data set on Phakopsora pachyrhizi, the pest or weed control at 200 ppm was no less than 80%.
`[O-][S+](c1ccc(-c2noc(C(F)(F)F)n2)cc1)c1ccccc1C(F)(F)F` (stereo not shown) [Compound 2.21, 5-(trifluoromethyl)-3-[4-[2-(trifluoromethyl)phenyl]sulfinylphenyl]-1,2,4-oxadiazole] gave a melting point of 80 to 86 °C. Besides, the pest or weed control at 200 ppm in the data set with Phakopsora pachyrhizi was no less than 80%.
As usually defined, the inhibition is the drop in the measured response relative to a control, in per cent. Take `FC(F)(F)c1nc(-c2ccc(SCc3ccccc3)nc2)no1` [Compound 1.21, 3-(6-benzylsulfanyl-3-pyridyl)-5-(trifluoromethyl)-1,2,4-oxadiazole]: the melting point is 66 to 68 °C. Also, in data set [1], the inhibition at 20 ppm was no less than 80%.
On the same counts, the results for `Cc1ccc(C)c(S(=O)(=O)c2ccc(-c3noc(C(F)(F)F)n3)cc2)c1` [Compound 3.6, 3-[4-(2,5-dimethylphenyl)sulfonyl-phenyl]-5-(trifluoromethyl)-1,2,4-oxadiazole] are 118 to 125 °C and no less than 80%.
The compound `O=S(=O)(CC(F)(F)F)c1ccc(-c2noc(C(F)(F)F)n2)cc1` [Compound 3.5, 3-[4-(2,2,2-trifluoroethylsulfonyl)phenyl]-5-(trifluoromethyl)-1,2,4-oxadiazole] gave a melting point of 117 to 122 °C. In addition, the inhibition at 20 ppm in data set [1] is no less than 80%.
Turning to `O=S(=O)(Cc1c(F)cc(-c2noc(C(F)(F)F)n2)cc1F)c1ccccc1` [Compound 3.24, 3-[4-(benzenesulfonylmethyl)-3,5-difluoro-phenyl]-5-(trifluoromethyl)-1,2,4-oxadiazole], the melting point lay in the range of 135 to 140 °C. For the same compound, in the data set with Phakopsora pachyrhizi, the pest or weed control at 200 ppm is no less than 80%.
For the compound `Fc1cccc(F)c1CSc1ccc(-c2noc(C(F)(F)F)n2)cc1` [Compound 1.6, 3-[4-[(2,6-difluorophenyl)methylsulfanyl]phenyl]-5-(trifluoromethyl)-1,2,4-oxadiazole], the pest or weed control at 200 ppm in the data set on Phakopsora pachyrhizi was no less than 80%.
Consider `Fc1ccc(Sc2ccc(-c3noc(C(F)(F)F)n3)cc2)cc1` [Compound 1.9, 3-[4-(4-fluorophenyl)sulfanylphenyl]-5-(trifluoromethyl)-1,2,4-oxadiazole], for which the melting point was 64 to 67 °C. Further, in the data set with Phakopsora pachyrhizi, the pest or weed control at 200 ppm was no less than 80%.
Regarding `FC(F)(F)c1nc(-c2ccc(CSc3ccccc3)cc2)no1` [Compound 1.13, 3-[4-(phenylsulfanylmethyl)phenyl]-5-(trifluoromethyl)-1,2,4-oxadiazole], the melting point lay in the range of 86 to 91 °C. In addition, in the data set with Phakopsora pachyrhizi, the pest or weed control at 200 ppm was no less than 80%.
On to `O=S(=O)(c1ccc(-c2noc(C(F)(F)F)n2)cc1)c1ccccc1Cl` [Compound 3.20, 3-[4-(2-chlorophenyl)sulfonylphenyl]-5-(trifluoromethyl)-1,2,4-oxadiazole], for which, in the data set with Phakopsora pachyrhizi, the pest or weed control at 200 ppm is no less than 80%. The inhibition at 20 ppm in data set [1] is no less than 80%.
`CC(C)(C)S(=O)(=O)c1ccc(-c2noc(C(F)(F)F)n2)cc1` [Compound 3.13, 3-(4-tert-butylsulfonylphenyl)-5-(trifluoromethyl)-1,2,4-oxadiazole] came in with a melting point of 133 to 136 °C. Besides, the inhibition at 20 ppm in data set [1] was no less than 80%.
For `FC(F)(F)CSc1ccc(-c2noc(C(F)(F)F)n2)cc1` [Compound 1.4, 3-[4-(2,2,2-trifluoroethylsulfanyl)phenyl]-5-(trifluoromethyl)-1,2,4-oxadiazole], the pest or weed control at 200 ppm in the data set on Phakopsora pachyrhizi was no less than 80%.
With `Fc1ccccc1Sc1ccc(-c2noc(C(F)(F)F)n2)cn1` [Compound 1.20, 3-[6-(2-fluorophenyl)sulfanyl-3-pyridyl]-5-(trifluoromethyl)-1,2,4-oxadiazole], in the data set with Phakopsora pachyrhizi, the pest or weed control at 200 ppm is no less than 80%. In addition, the inhibition at 20 ppm in data set [1] was no less than 80%.
In turn, `Cc1cc(-c2noc(C(F)(F)F)n2)ccc1S(=O)(=O)c1ccccc1` [Compound 3.8, 3-[4-(benzenesulfonyl)-3-methyl-phenyl]-5-(trifluoromethyl)-1,2,4-oxadiazole] gave a melting point of 117 to 124 °C. In addition, in data set [1], the inhibition at 20 ppm was no less than 80%.
Turning to `COc1ccccc1Sc1ccc(-c2noc(C(F)(F)F)n2)cc1` [Compound 1.11, 3-[4-(2-methoxyphenyl)sulfanyl-phenyl]-5-(trifluoromethyl)-1,2,4-oxadiazole], the pest or weed control at 200 ppm in the data set with Phakopsora pachyrhizi is no less than 80%.
On the same count and under the same terms, the value for `FC(F)(F)c1nc(-c2ccc(Sc3ccccc3Cl)cc2)no1` [Compound 1.18, 3-[4-(2-chlorophenyl)sulfanylphenyl]-5-(trifluoromethyl)-1,2,4-oxadiazole] was no less than 80%.
`[O-][S+](Cc1ccccc1)c1ccc(-c2noc(C(F)(F)F)n2)cc1` (stereo not shown) [Compound 2.4, 3-(4-benzylsulfinylphenyl)-5-(trifluoromethyl)-1,2,4-oxadiazole] had a melting point of 178 to 181 °C. Moreover, the inhibition at 20 ppm in data set [1] was no less than 80%.
The compound `Cc1cc(-c2noc(C(F)(F)F)n2)ccc1SCc1ccccc1` [Compound 1.22, 3-(4-benzylsulfanyl-3-methyl-phenyl)-5-(trifluoromethyl)-1,2,4-oxadiazole] came in with a melting point of 66 to 72 °C.
For `[O-][S+](Cc1ccc(-c2noc(C(F)(F)F)n2)c(F)c1)c1ccccc1` (stereo not shown) [Compound 2.30, 3-[4-(benzenesulfinylmethyl)-2-fluoro-phenyl]-5-(trifluoromethyl)-1,2,4-oxadiazole], the melting point was in the range of 149 to 156 °C.
For `CC(C)(C)Sc1ccc(-c2noc(C(F)(F)F)n2)cc1` [Compound 1.16, 3-(4-tert-butylsulfanylphenyl)-5-(trifluoromethyl)-1,2,4-oxadiazole], in data set [1], the inhibition at 20 ppm is no less than 80%.
The compound `Fc1cc(-c2noc(C(F)(F)F)n2)cc(F)c1CSc1ccccc1` [Compound 1.27, 3-[3,5-difluoro-4-(phenylsulfanylmethyl)phenyl]-5-(trifluoromethyl)-1,2,4-oxadiazole] had a melting point of 50 to 55 °C. The inhibition at 20 ppm in data set [1] was no less than 80%.
In turn, `FC(F)(F)c1nc(-c2ccc(SCc3ccccc3)cc2)no1` [Compound 1.3, 3-(4-benzylsulfanylphenyl)-5-(trifluoromethyl)-1,2,4-oxadiazole] yielded a melting point of 83 to 87 °C.
Regarding `O=S(=O)(Cc1ccc(-c2noc(C(F)(F)F)n2)c(F)c1)c1ccccc1` [Compound 3.22, 3-[4-(benzenesulfonylmethyl)-2-fluoro-phenyl]-5-(trifluoromethyl)-1,2,4-oxadiazole], the melting point is 172 to 178 °C. In addition, the pest or weed control at 200 ppm with Phakopsora pachyrhizi is no less than 80%.
As for `Cc1ccccc1Sc1ccc(-c2noc(C(F)(F)F)n2)cn1` [Compound 1.19, 3-[6-(o-tolylsulfanyl)-3-pyridyl]-5-(trifluoromethyl)-1,2,4-oxadiazole], in data set [1], the inhibition at 20 ppm was no less than 80%.
Take `[O-][S+](Cc1ccccc1)c1ccc(-c2noc(C(F)(F)F)n2)cn1` (stereo not shown) [Compound 2.27, 3-(6-benzylsulfinyl-3-pyridyl)-5-(trifluoromethyl)-1,2,4-oxadiazole]: the melting point lay within 122 to 125 °C. The inhibition at 20 ppm in data set [1] was no less than 80%.
Compound `CCC(C)CS(=O)(=O)c1ccc(-c2noc(C(F)(F)F)n2)cc1` (stereo not shown) [Compound 3.15, 3-[4-(2-methylbutylsulfonyl)phenyl]-5-(trifluoromethyl)-1,2,4-oxadiazole] returned a melting point of 75 to 80 °C. Moreover, the inhibition at 20 ppm in data set [1] was no less than 80%.
`O=S(=O)(Cc1ccc(-c2noc(C(F)(F)F)n2)cc1)c1ccccc1F` [Compound 3.11, 3-[4-[(2-fluorophenyl)sulfonylmethyl]phenyl]-5-(trifluoromethyl)-1,2,4-oxadiazole] came in with a melting point of 150 to 154 °C. Moreover, in the data set on Phakopsora pachyrhizi, the pest or weed control at 200 ppm was no less than 80%.

These data come from US20180319753A1, “MICROBIOCIDAL OXADIAZOLE DERIVATIVES” (SYNGENTA PARTICIPATIONS AG, priority 2015, published 2018).
